Where two headings read alike, the source gives them in different places.
Experiments:
DTD-rich cell lines = details: literature; cited from earlier work
DNA [1] = details: literature; cited from earlier work
DTD = details: cited from earlier work; for Substrate quality for DTD / pH dependence of metabolism by DTD: literature
BE and HT-29 cells = assay: MTT continuous challenge cytotoxicity, ratio BE/HT-29; format: cell-based, human; details: ratio of cytotoxicities, five days, 7200 min
Procedure: (§1) The cell lines used in this work were HT29, H460, H596, BE. These were obtained from the ATCC or from the European Collection for Animal Cell Cultures, ECACC. HT29 is a human colon cancer cell line and H460 is a human large cell lung carcinoma cell line. These two cell lines were used as they express relatively high levels of DTD. […] Continuous challenge cytotoxicity studies were carried out on these cells (600 per well) in 96 well plates using the MTT method. After five days, the absorbances were read on a multiscan plate reader at 540 and 640nm. Plots were then drawn for inhibition of cell growth as a function concentration. Each compound was tested in triplicate at each concentration on at least two occasions.

H596 and H460 cells = assay: MTT continuous challenge cytotoxicity, ratio H596/H460; format: cell-based, human; details: ratio of cytotoxicities, five days, 7200 min
Procedure: as §1

[2] = Bibby et al. 1993; cited from earlier work
spheroid = details: literature; cited from earlier work
NSCLC xenografts = details: cited from earlier work
[3] = cited from earlier work
DNA [4] = details: Lee et al. 1992; cited from earlier work
[5] = test system: BE human colon carcinoma cells and H460 human non-small cell lung cancer cells; assay: MTT cytotoxicity, continuous four day exposure, BE versus H460 (FIG. 2); format: cell-based; details: four days, 5760 min
Procedure: (§2) The cell line BE is a human colon carcinoma that is described in Day et al., Carcinogenesis 1 :21-32 (1980).
The cytotoxicity of RH1 and MeDZQ to BE human colon carcinoma cells and H460 human non small cell lung cancer cells was determined. BE cells are DT-diaphorase null due to a mutation in the DT-diaphorase gene, while H460 cells have elevated DT-diaphorase levels (Traver et al., (1997) supra.). Cytotoxicity was determined using the MTT assay and cells were exposed to drug continuously throughout the four day assay.

[6] = test system: CHO cell lines stably transfected with human DTD; details: Gustafson et al. 1996; cited from earlier work
[7] = test system: 69 human tumor cell lines; details: p<0.016; cited from earlier work
[8] = test system: cells under hypoxic conditions; details: hypoxic vs aerobic; cited from earlier work
H460 and H596 cells = details: Ross et al. 1993; cited from earlier work
[9] = Beall et al. 1994, 1995; cited from earlier work
[10] = target: human recombinant DT-diaphorase (Homo sapiens, UniProt P15559); assay: NADH removal and quinone removal by recombinant human DT-diaphorase, HPLC; format: biochemical; details: for NADH Removal / Quinone Removal: 0.05 mM quinone, 10-100 ng/ml rhDT-diaphorase, 0.2 mM NADH, 25 mM Tris pH 7.4, n=3
Chain of human recombinant DT-diaphorase (P15559 whole entry): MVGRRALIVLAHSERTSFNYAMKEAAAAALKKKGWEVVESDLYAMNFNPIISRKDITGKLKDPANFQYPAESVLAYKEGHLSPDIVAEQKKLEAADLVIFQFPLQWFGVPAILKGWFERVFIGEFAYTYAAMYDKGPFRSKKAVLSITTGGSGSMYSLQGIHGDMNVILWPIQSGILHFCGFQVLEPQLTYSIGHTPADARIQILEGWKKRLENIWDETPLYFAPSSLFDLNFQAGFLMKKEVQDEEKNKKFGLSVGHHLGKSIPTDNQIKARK
Procedure: The relative abilities of MeDZQ and RH1 to serve as substrates for human recombinant DT-diaphorase were determined. Both quinones (0.05 mM) were incubated with 10-100 ng/ml recombinant human DT-diaphorase and NADH (0.2 mM) in 25 mM Tris buffer, pH 7.4, containing 1 mM DETAPAC. NADH removal was measured by HPLC as described in Beall et al., (1995), supra.

[11] = test system: NSCLC and breast cancer cell lines; details: Beall et al. 1995; cited from earlier work
[12] = test system: H460 and H596 human non-small cell lung cancer cells; assay: MTT cytotoxicity, 2 hour exposure, H460 versus H596 cells (FIG. 1); format: cell-based
Procedure: FIG. 1 compares the cytotoxicity of RH1 in human non small cell lung tumor cell lines with elevated DTD activity (H460) and those with no detectable DTD activity (H596). RH1 was 350 fold more toxic to tumor cells with elevated DTD activity than to DTD null cells.
Studies were conducted to determine the cytotoxicity of RH1 against human non small cell lung cancer cell lines. H596 cells are DT-diaphorase null due to a mutation in the DT-diaphorase gene, while H460 cells have elevated DT-diaphorase levels as described in Beall et al., (1995) supra and Traver et al., Br. J. Cancer, 75:69-75 (1997). The cell lines H460 and H596 are available from the American Tissue Type Culture Collection (ATCC), Rockville, Md. Cytotoxicity was determined after a 2 hour drug exposure in serumless medium using the MTT assay as described in detail in Beall et al., (1995), supra.

DNA [13] = assay: DNA crosslinking sequence specificity; format: biochemical
[14] = Half-life in pharmacokinetics; details: attributed to free hydroxyl group / water solubility
[15] = Stability of RH1 in phosphate buffer; format: physicochemical
Procedure: (§3) RH1 is easily synthesized with very high purity (>99%). […] The RH1 solutions are very stable with a half life of RH1 in phosphate buffer (0.1 M, pH=7) of more than 2 days at 25° C.

CHO812 and CHOglyA cells = assay: Cytotoxicity of RH1 to CHOglyA and DTD-transfected CHO812 cells (FIG. 3); format: cell-based, chinese hamster
Procedure: as §2
Further studies were conducted to determine the cytotoxicity of RH1 to CHOglyA and CHO812 cells. CHOglyA cells have non detectable levels of DT-diaphorase, whereas CHO812 cells have elevated levels of DT-diaphorase as reported in Gustafson et al., (1996) supra. The original CHO cell lines were obtained from the American Type Culture Collection, Rockville, Md.

[16] = Solubility in aqueous solution; format: physicochemical; details: phosphate buffered saline; 25° C.
Procedure: as §3

CCOC(=O)NC1=C(N2CC2)C(=O)C(NC(=O)OCC)=C(N2CC2)C1=O [AZQ, Diaziquone]
Selectivity for DTD-rich cell lines (DTD-rich cell lines): failed to show any selectivity for DTD-rich cell lines
DNA damage after reduction (crosslinks, strand breaks) (DNA [1]): does not readily form DNA crosslinks after reduction by DTD
Substrate quality for DTD (DTD): extremely poor substrate for DTD

CC(=O)OCC1=C(N2CC2)C(=O)C(C)=C(N2CC2)C1=O [Acetyl-, 2-Acetoxymethyl-3,6-diaziridinyl-5-methyl-1,4-benzoquinone]
BE/HT-29 (BE and HT-29 cells): 5.2
H596/H460 (H596 and H460 cells): 4.7

CC1=C(N2CC2)C(=O)C(COC(=O)c2ccccc2)=C(N2CC2)C1=O [Benzoyl, benzoyl ester of RH1]
BE/HT-29 (BE and HT-29 cells): 0.1
H596/H460 (H596 and H460 cells): 4

Cn1c(/C=C/CO)c(CO)c2c1C(=O)C=C(N1CC1)C2=O [E09]
Ability to penetrate cells and cross cellular membranes [2]: poor ability
Activity / cytotoxicity in spheroid studies (spheroid): not active
DNA damage after reduction (crosslinks, strand breaks) (DNA [1]): exclusively form DNA strand breaks
Substrate quality for DTD (DTD): efficiently reduced by DTD

CC1=C(N2CC2)C(=O)C(C)=C(N2CC2)C1=O [MeDZQ, 2,5-diaziridinyl-3,6-dimethyl-1,4-benzoquinone]
Relationship between levels of reducing enzymes and efficacy in NSCLC xenografts (NSCLC xenografts; in vivo): confirmed the relationship between the levels of reducing enzymes and the efficacy
solubility [3]: poor solubility
DNA crosslinking sequence (DNA [4]): GNC sequences
Ratio of cytotoxicities of IC50, BE (no DTD activity) to H460 (elevated DTD activity) [5]: 33
Cytotoxicity as a result of transfecting DTD into CHO cells [6]: markedly increased
Correlation (r) between DTD activity and cytotoxicity [7]: 0.3033
Increase in cytotoxicity under hypoxic relative to aerobic conditions [8]: very modest increase in cytotoxicity
Cytotoxicity to H596 and H460 cells in comparison to RH1 (H460 and H596 cells): less cytotoxic to both H596 and H460 cells
Differential toxicity to H460 cells (versus H596) (H460 and H596 cells): 17 fold
Activity / cytotoxicity in spheroid studies (spheroid): increased cytotoxicity
DNA damage after reduction (crosslinks, strand breaks) (DNA [1]): absolute requirement for reduction of the drug
Stability of reactive hydroquinone metabolite [9]: appreciable stability
NADH Removal [10]: 21.6 ± 4.0
Quinone Removal [10]: 9.7 ± 2.2
Correlation between DTD levels and cytotoxicity [11]: good correlation
Effectiveness as a substrate for recombinant human DTD relative to mitomycin C (DTD; Beall et al. 1994, Ross et al. 1994): greater than 150 fold
Inhibition / inactivation of DTD at higher pHs (DTD): does not inactivate DTD at higher pHs
pH dependence of metabolism by DTD (DTD): pH-independent

CC1=C(N2CC2)C(=O)C(CO)=C(N2CC2)C1=O [RH1, 2,5-diaziridinyl-3-(hydroxymethyl)-6-methyl-1,4-benzoquinone]
Cytotoxicity to tumor cell lines with elevated DTD activity, compared with MeDZQ [12]: more cytotoxic to tumor cell lines with elevated DTD activity
Selective killing of DTD-rich cells [12]: selectively kills cells rich in DTD
Fold toxicity to tumor cells with elevated DTD activity (H460) relative to DTD null cells (H596) ([12]; 2 hour exposure, MTT, FIG. 1): 350 fold
DNA crosslinking sequence (DNA [13]): GCC sequences
Half-life in pharmacokinetics [14]: shorter half-life in pharmacokinetics
Ratio of cytotoxicities of IC50, BE (no DTD activity) to H460 (elevated DTD activity) [5]: 51
BE/HT-29 (BE and HT-29 cells): 17.5
Stability of solutions [15]: very stable
half-life ([15]; 0.1 m phosphate buffer, 0.1 M, pH=7, 25° C.): > 48 h
Susceptibility of CHO-812 (DTD overexpressing) to cell killing relative to parent CHO-glyA (CHO812 and CHOglyA cells): more susceptible
solubility [16]: > 500 µg/mL
NADH Removal [10]: 45.2 ± 6.3
Quinone Removal [10]: 28.2 ± 4.2
Effectiveness as a substrate for DT-diaphorase, compared with MeDZQ ([10]; Example 2): more effective as a substrate for DT-diaphorase than MeDZQ
H596/H460 (H596 and H460 cells): 41

CO[C@@]12[C@H](COC(N)=O)C3=C(C(=O)C(C)=C(N)C3=O)N1C[C@@H]1N[C@@H]12 [mitomycin C]
Susceptibility of NSCLC xenografts with high DTD activity versus SCLC xenografts with low DTD activity (NSCLC xenografts; literature): more susceptible
Inhibition / inactivation of DTD at higher pHs (DTD): pH-dependent inhibition of DTD at higher pHs
Substrate quality for DTD (DTD): very poor substrate for DTD
pH dependence of metabolism by DTD (DTD): pH-dependent
